We go through 38 compounds from US20110065694A1 (priority 2009, published 2011).

Each structure is given as a SMILES string. Like-named read-outs stand apart in the source and are kept apart here.

This test addresses human histamine H3 receptor (Homo sapiens, UniProt Q9Y5N1). Description: H3 GTPγS assay (SPA method), histamine H3 in vitro assay. Format: biochemical. The protocol: Briefly, cells expressing the human histamine H3 receptor were homogenized in 15 mM Tris-HCl pH 7.5, 2 mM MgCl2, 0.3 mM EDTA, and 1 mM EGTA. […] Membranes were frozen in liquid nitrogen until use. On the day of the assay, membranes were thawed and diluted in assay buffer (20 mM HEPES pH 7.4, 100 mM NaCl, 10 μg/ml saponin, 1 mM MgCl2) to give 500 μg/ml and mixed (v/v) with GDP in assay buffer for a final GDP concentration of 10 μM and incubated on ice for at least […]. PVT-WGA beads (Amersham, RPNQ001) were diluted in assay buffer at 50 mg/mL and mixed with GTPγ[^35S] (Amersham, SJ1308) diluted in assay buffer to give ˜25,000 dpm/10 μL and mixed vol/vol just before the start of the reaction.
For antagonists testing, 10 μL of a reference agonist ([…]) instead of 10 μL buffer was added at a concentration corresponding to the EC80 (30 nM).
The compounds provided herein were tested in the histamine H3 in vitro assay. In one embodiment, the respective HCl salts of the compounds provided herein were prepared using standard chemical procedures and tested in the histamine H3 in vitro assay.

Setting [1] is: membranes of cells expressing human H3, GTPγ[35S] SPA, antagonist testing with reference agonist at EC80 (30 nM), in one embodiment HCl salts tested, read-out: Potency (functional potency as indicated by IC50).

Chain of human histamine H3 receptor (Q9Y5N1 whole entry): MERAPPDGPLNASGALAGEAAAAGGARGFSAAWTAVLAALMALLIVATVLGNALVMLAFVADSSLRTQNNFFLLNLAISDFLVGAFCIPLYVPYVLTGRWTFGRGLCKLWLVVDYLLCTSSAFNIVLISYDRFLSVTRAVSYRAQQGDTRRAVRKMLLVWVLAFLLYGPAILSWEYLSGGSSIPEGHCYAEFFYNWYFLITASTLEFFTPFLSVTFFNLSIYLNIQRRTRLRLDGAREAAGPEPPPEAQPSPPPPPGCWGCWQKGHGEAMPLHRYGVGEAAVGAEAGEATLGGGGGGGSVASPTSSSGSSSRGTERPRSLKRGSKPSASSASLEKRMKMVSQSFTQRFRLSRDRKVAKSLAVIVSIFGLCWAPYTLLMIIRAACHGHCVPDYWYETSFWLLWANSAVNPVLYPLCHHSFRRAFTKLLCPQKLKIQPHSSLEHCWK

One may read the IC50 as the concentration that inhibits the measured activity by half. `N#Cc1ccc(-c2ccc3c(c2)nc2n3CC3CCC(C2)N3C2CCC2)cc1` (single isomer, unassigned) [Compound 44]: under setting [1], the IC50 is less than 10 nM.
Consider `N#Cc1ccc(-c2ccc3c(c2)nc2n3CC3CCC(C2)N3C2CCC2)cc1` (single isomer, unassigned) [Compound 45], for which the IC50 under setting [1] was less than 1000 nM.
Still for that read-out and setting: the same measure for `N#Cc1ccc(-c2ccc3c(c2)nc2n3CCN3CCCCC3C2)cc1` (single isomer, unassigned) [Compound 46]: less than 100 nM; for `N#Cc1ccc(-c2ccc3c(c2)nc2n3CCN3CCCCC3C2)cc1` (single isomer, unassigned) [Compound 47]: less than 10 nM.
Take `c1cc2c(cc1CN1CCOCC1)nc1n2CCN2CCCCC2C1` (single isomer, unassigned) [Compound 50]: the IC50 under setting [1] was less than 10 nM.
Take `c1cc2c(cc1CN1CCOCC1)nc1n2CCN2CCCCC2C1` (single isomer, unassigned) [Compound 51]: the IC50 under setting [1] is less than 100 nM.
With `c1cn2cc(-c3ccc4c(c3)nc3n4CCCN4CCCCC4C3)ccc2n1` (single isomer, unassigned) [Compound 70], under setting [1], the IC50 is less than 10 nM.
Still for that read-out and setting: the same measure for `c1cn2cc(-c3ccc4c(c3)nc3n4CCCN4CCCCC4C3)ccc2n1` (single isomer, unassigned) [Compound 71]: less than 100 nM; for `c1cn2cc(-c3ccc4c(c3)nc3n4CCN4CCCC4C3)ccc2n1` (single isomer, unassigned) [Compound 77]: less than 10 nM; for `c1cn2cc(-c3ccc4c(c3)nc3n4CCN4CCCC4C3)ccc2n1` (single isomer, unassigned) [Compound 78]: less than 100 nM.
For the compound `c1cn2cc(-c3ccc4c(c3)nc3n4CCCN4CCCC4C3)ccc2n1` (single isomer, unassigned) [Compound 82], the IC50 under setting [1] was less than 10 nM.
Same read-out and setting: with `c1cn2cc(-c3ccc4c(c3)nc3n4CCCN4CCCC4C3)ccc2n1` (single isomer, unassigned) [Compound 83] the figure was less than 10 nM.
Compound `Brc1ccc2c(c1)nc1n2CCN2CCC[C@H]2C1` [Compound 1, (S)-10-bromo-2,3,5,6,13,13a-hexahydro-1H-benzo[4,5]imidazo[1,2-d]pyrrolo[2,1-g][1,4]diazepine] came in with an IC50 of less than 1000 nM.
Same read-out and setting: with `N#Cc1ccc(-c2ccc3c(c2)nc2n3CCN3CCC[C@H]3C2)cc1` [Compound 2, (S)-4-(2,3,5,6,13,13a-hexahydro-1H-benzo[4,5]imidazo[1,2-d]pyrrolo[2,1-g][1,4]diazepin-10-yl)benzonitrile] the figure was less than 100 nM.
On to `CC(=O)Nc1ccc(-c2ccc3c(c2)nc2n3CCN3CCC[C@H]3C2)cc1` [Compound 3, (S)-N-(4-(2,3,5,6,13,13a-hexahydro-1H-benzo[4,5]imidazo[1,2-d]pyrrolo[2,1-g][1,4]diazepin-10-yl)phenyl)acetamide], for which the half-maximal inhibitory concentration (IC50) under setting [1] was less than 100 nM.
On to `c1coc(-c2ccc3c(c2)nc2n3CCN3CCC[C@H]3C2)c1` [Compound 4, (5)-10-(furan-2-yl)-2,3,5,6,13,13a-hexahydro-1H-benzo[4,5]imidazo[1,2-d]pyrrolo[2,1-g][1,4]diazepine], for which the IC50 under setting [1] is less than 1000 nM.
On to `N#Cc1ccc(-c2ccc3c(c2)nc2n3CCN3CCC[C@H]3C2)cn1` [Compound 5, (S)-5-(2,3,5,6,13,13a-hexahydro-1H-benzo[4,5]imidazo[1,2-d]pyrrolo[2,1-g][1,4]diazepin-10-yl)picolinonitrile], for which the 50% inhibitory concentration (IC50) under setting [1] is less than 100 nM.
With `c1cnc(-c2ccc3c(c2)nc2n3CCN3CCC[C@H]3C2)cn1` [Compound 6, (S)-10-(pyrazin-2-yl)-2,3,5,6,13,13a-hexahydro-1H-benzo[4,5]imidazo[1,2-d]pyrrolo[2,1-g][1,4]diazepine], the IC50 under setting [1] was more than 1000 nM.
As to `Brc1ccc2c(c1)nc1n2CCN2CCCCC2C1` (centres unmarked) [Compound 7, 11-bromo-1,2,3,4,6,7,14,14a-octahydrobenzo-[4,5]imidazo[1,2-d]pyrido[2,1-g][1,4]diazepine], the concentration for half-maximal inhibition (IC50) under setting [1] is less than 100 nM.
With `N#Cc1ccc(-c2ccc3c(c2)nc2n3CCN3CCCCC3C2)cc1` (centres unmarked) [Compound 8, 4-(1,2,3,4,6,7,14,14a-octahydrobenzo[4,5]imidazo-[1,2-d]pyrido[2,1-g][1,4]diazepin-11-yl)benzonitrile], the IC50 under setting [1] was less than 10 nM.
Consider `c1cnc(-c2ccc3c(c2)nc2n3CCN3CCCCC3C2)cn1` (centres unmarked) [Compound 9, 11-(pyrazin-2-yl)-1,2,3,4,6,7,14,14a-octahydrobenzo[4,5]imidazo[1,2-d]pyrido[2,1-g][1,4]diazepine], for which, under setting [1], the IC50 is less than 10 nM.
For `c1cn(-c2ccc3c(c2)nc2n3CCN3CCCCC3C2)cn1` (centres unmarked) [Compound 10, 11-(1H-imidazol-1-yl)-1,2,3,4,6,7,14,14a-octahydrobenzo[4,5]imidazo[1,2-d]pyrido[2,1-g][1,4]diazepine], the IC50 under setting [1] was less than 10 nM.
Still for that read-out and setting: with `CN1CCN(c2ccc3c(c2)nc2n3CCN3CCCCC3C2)CC1` (centres unmarked) [Compound 11, 11-(4-methylpiperazin-1-yl)-1,2,3,4,6,7,14,14a-octahydrobenzo[4,5]imidazo[1,2-d]pyrido[2,1-g][1,4]diazepine] the figure was less than 10 nM.
Regarding `Brc1ccc2c(c1)nc1n2CC2CCCN2CC1` (centres unmarked) [Compound 12, 9-bromo-2,3,5,6,13,13a-hexahydro-1H-benzo[4,5]imidazo[1,2-d]pyrrolo[1,2-a][1,4]diazepine], the IC50 is more than 1000 nM.
Consider `N#Cc1ccc(-c2ccc3c(c2)nc2n3CC3CCCN3CC2)cc1` (centres unmarked) [Compound 13, 4-(2,3,5,6,13,13a-hexahydro-1H-benzo[4,5]imidazo[1,2-d]pyrrolo[1,2-a][1,4]diazepin-9-yl)benzonitrile], for which the concentration for half-maximal inhibition (IC50) under setting [1] was less than 1000 nM.
On the same count and under the same terms, with `c1coc(-c2ccc3c(c2)nc2n3CC3CCCN3CC2)c1` (centres unmarked) [Compound 14, 9-(furan-2-yl)-2,3,5,6,13,13a-hexahydro-1H-benzo[4,5]imidazo[1,2-d]pyrrolo[1,2-a][1,4]diazepine] the figure was more than 1000 nM; with `c1cn2cc(-c3ccc4c(c3)nc3n4CCN4CCCCC4C3)ccc2n1` (centres unmarked) [Compound 15, 11-(imidazo[1,2-a]pyridin-6-yl)-1,2,3,4,6,7,14,14a-octahydrobenzo[4,5]imidazo[1,2-d]pyrido[2,1-g][1,4]diazepine], less than 10 nM; with `c1ccc2c(c1)ncn2-c1ccc2c(c1)nc1n2CCN2CCCCC2C1` (centres unmarked) [Compound 16, 11-(1H-benzo[d]imidazol-1-yl)-1,2,3,4,6,7,14,14a-octahydrobenzo[4,5]imidazo[1,2-d]pyrido[2,1-g][1,4]diazepine], less than 10 nM.
Take `c1cc2c(cc1CN1CCOCC1)nc1n2CCN2CCCCC2C1` (centres unmarked) [Compound 17, 4-((1,2,3,4,6,7,14,14a-octahydrobenzo[4,5]imidazo[1,2-d]pyrido[2,1-g][1,4]diazepin-11-yl)methyl)morpholine]: the IC50 under setting [1] is less than 10 nM.
Turning to `Clc1ccc2c(c1)nc1n2CC2CCC(C1)N2C1CCC1` (centres unmarked) [Compound 18, 3-chloro-13-cyclobutyl-6,7,8,9,10,11-hexahydro-7,10-epiminobenzo[4,5]imidazo[1,2-a]azocine], the concentration for half-maximal inhibition (IC50) under setting [1] was less than 1000 nM.
In turn, `c1coc(-c2ccc3c(c2)nc2n3CC3CCC(C2)N3C2CCC2)c1` (centres unmarked) [Compound 19, 13-cyclobutyl-3-(furan-2-yl)-6,7,8,9,10,11-hexahydro-7,10-epiminobenzo[4,5]imidazo[1,2-a]azocine] registered an IC50 of less than 100 nM.
As to `N#Cc1ccc(-c2ccc3c(c2)nc2n3CC3CCC(C2)N3C2CCC2)cc1` (centres unmarked) [Compound 20, 4-(13-cyclobutyl-6,7,8,9,10,11-hexahydro-7,10-epiminobenzo[4,5]imidazo[1,2-a]azocin-3-yl)benzonitrile], the IC50 under setting [1] is less than 10 nM.
Turning to `CC(=O)Nc1ccc(-c2ccc3c(c2)nc2n3CC3CCC(C2)N3C2CCC2)cc1` (centres unmarked) [Compound 21, N-(4-(13-cyclobutyl-6,7,8,9,10,11-hexahydro-7,10-epiminobenzo[4,5]imidazo[1,2-a]azocin-3-yl)phenyl)acetamide], the IC50 under setting [1] was less than 10 nM.
With `c1cc2cc(-c3ccc4c(c3)nc3n4CC4CCC(C3)N4C3CCC3)ccc2[nH]1` (centres unmarked) [Compound 22, 13-cyclobutyl-3-(1H-indol-5-yl)-6,7,8,9,10,11-hexahydro-7,10-epiminobenzo[4,5]imidazo[1,2-a]azocine], the IC50 under setting [1] is less than 100 nM.
In turn, `NCc1ccc(-c2ccc3c(c2)nc2n3CC3CCC(C2)N3C2CCC2)cc1` (centres unmarked) [Compound 23, (4-(13-cyclobutyl-6,7,8,9,10,11-hexahydro-7,10-epiminobenzo[4,5]imidazo[1,2-a]azocin-3-yl)phenyl)-methanamine] had an IC50 of less than 10 nM.
As for `N#Cc1ccc(-c2ccc3c(c2)nc2n3CC3CCC(C2)N3C2CCC2)cc1F` (centres unmarked) [Compound 24, 4-(13-cyclobutyl-6,7,8,9,10,11-hexahydro-7,10-epiminobenzo[4,5]imidazo[1,2-a]azocin-3-yl)-2-fluorobenzonitrile], the IC50 under setting [1] is less than 10 nM.
For the compound `Clc1ccc2c(c1)nc1n2C2CCC1CN(C1CCC1)C2` (centres unmarked) [Compound 25, 8-chloro-3-cyclobutyl-2,3,4,5-tetrahydro-1H-1,5-ethanobenzo[4,5]imidazo[1,2-d][1,4]diazepine], the IC50 under setting [1] is less than 1000 nM.
For the compound `N#Cc1ccc(-c2ccc3c(c2)nc2n3C3CCC2CN(C2CCC2)C3)cc1` (centres unmarked) [Compound 26, 4-(3-cyclobutyl-2,3,4,5-tetrahydro-1H-1,5-ethanobenzo[4,5]imidazo[1,2-d][1,4]diazepin-8-yl)benzonitrile], the IC50 was less than 100 nM.
